From patent US4474790A, “Thioalkylamide of nicotinic acid 1-oxide, its salts, and pharmaceutical compositions” (SANOFI, priority 1981, dated 1984)

Key:
[1] = molecular target: T1, cardiac histamine H2 receptor (Cavia porcellus, UniProt P47747); conditions: concentration inhibiting by 50% the increase in frequency induced by histamine; isolated right atrium of the Guinea pig; CM 57755 as dihydrochloride
T1 construct: isolated right atrium of the Guinea pig; from tissue; host or cells: isolated guinea pig right atrium

[2] = molecular target: T2, gastric histamine H2 receptor (Cavia porcellus, UniProt P47747); design: species or system guinea pig; conditions: for IC50: concentration inhibiting by 50% the secretion induced by histamine, isolated stomach mucous membrane of the Guinea pig, CM 57755 as dihydrochloride; for IC50 m/IC50 o: ratio gastric IC50 / cardiac IC50
T2 construct: isolated stomach mucous membrane of the Guinea pig; from tissue; host or cells: isolated guinea pig stomach mucous membrane

[3] = system: hypersecretion provoked by the dimaprit; test: antisecretory activity in the cat having a gastric fistula, dimaprit as hypersecretor (Emas et al.); assay type: in vivo; conditions: dimaprit 640 mcg/kg/hour
Method: The antisecretory activity of the products of the present invention was assessed in the cat having a gastric fistula according to the method of Emas et al.(Gastroenterology, 1969; 39, 771) using, as hypersecretor, dimaprit at the dose of 640 mcg/kg/hour.

[4] = system: gastric histamine H2 receptors; test: antisecretory activity: antagonism to the hypersecretion provoked by histamine in the rat (Ghosh and Schild); assay type: in vivo; conditions: intravenous route, histamine infusion equivalent to 15 mcmol/kg/hour
From the text: The antagonistic activity of the products of the present invention towards the gastric histamine H2 receptors was confirmed in the test of the antisecretory activity based on the antagonism to the hypersecretion provoked by histamine in the rat according to the method of Ghosh and Schild (Brit. J. Pharmacol.1958; 13, 54). According to this test, a gastric acid hypersecretion is induced by intravenous infusion of a submaximal dose equivalent to 15 mcmol/kg/hour and the gastric secretion is measured by perfusion of a physiological solution at a constant speed in the stomach of the animal.

[5] = acute toxicity (LD50) in the rat; conditions: in vivo, intravenous route
cardiac H2 receptors = conditions: treatment of ulcerous disease; Clinica Terapeutica, 1981, 96, 81-91; cited from earlier work

T2 sequence (P47747 whole entry): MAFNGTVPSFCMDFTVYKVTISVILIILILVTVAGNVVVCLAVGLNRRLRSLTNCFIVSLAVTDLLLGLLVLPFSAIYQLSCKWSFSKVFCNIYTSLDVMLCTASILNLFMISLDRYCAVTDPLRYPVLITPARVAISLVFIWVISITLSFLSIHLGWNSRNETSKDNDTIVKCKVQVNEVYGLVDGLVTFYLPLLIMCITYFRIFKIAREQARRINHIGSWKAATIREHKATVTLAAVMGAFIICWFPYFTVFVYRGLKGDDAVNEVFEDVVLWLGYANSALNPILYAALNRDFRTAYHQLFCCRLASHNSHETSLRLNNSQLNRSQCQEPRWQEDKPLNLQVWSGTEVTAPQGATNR
T1 sequence (P47747 whole entry): as above

Row | SMILES | IC50 [1] | IC50 [2] | affinity for the gastric H2 receptors versus the cardiac H2 receptors ([2]; conclusion from the IC50 m/IC50 o ratio) | selectivity of antagonising gastric hypersecretion versus the positive chronotropic action provoked by histamine ([2]; conclusion from the IC50 m/IC50 o ratio, relative to the reference compounds) | IC50 m/IC50 o [2] | duration of action after the suspension of the treatment [3] | activity compared with that of cimetidine ([3]; on molar basis) | antagonism of the hypersecretion provoked by the dimaprit ([3]; venous perfusion and intragastric route) | dose inhibiting by 50% the hypersecretion provoked by histamine [4] | LD50 [5] | secondary effects (block of the cardiac H2 receptors may be the cause) (cardiac H2 receptors)
1 | CN(C)Cc1ccc(CSCCNC(=O)c2ccc[n+]([O-])c2)o1.Cl.Cl [CM 57755, N-[2-(5-dimethylaminomethylfuran-2-ylmethylthio)ethyl]-3-pyridinecarboxamide 1-oxide dihydrochloride] | 4300 nM | 9200 nM | greater affinity for the gastric H2 receptors than for the cardiac H2 receptors | capable of antagonising gastric hypersecretion more selectively than the positive chronotropic action provoked by histamine | 2.13 | long duration of action after the suspension of the treatment | comparable, on molar basis, to that of the cimetidine | antagonises in dose-dependent manner | 0.9 mg/kg | 300 mg/kg | –
2 | CNC(=NC#N)NCCSCc1nc[nH]c1C [cimetidine, 2-cyano-1-methyl-3-[2[(5-methylimidazol-4-yl)methylthio]ethyl]guanidine, reference compound] | – | – | – | – | – | more transient | – | – | – | – | bradycardia and of asystolia
3 | CNC(=C[N+](=O)[O-])NCCSCc1ccc(CN(C)C)o1 [ranitidine, reference compound] | 86 nM | 650 nM | – | – | 7.6 | – | – | – | – | – | –
